Values quoted from earlier work as cited in PMC5936891, “A focused library synthesis and cytotoxicity of quinones derived from the natural product bolinaquinone” (Royal Society Open Science, 2018).

Columns and labels:
leukaemia L-1210 = test system: leukaemia L-1210; set-up: method as in ref 22 = [22]; 22 Shigemori H , Madono T , Sasaki T , Mikami Y , Kobayashi JI 1994 Nakijiquinones A and B, new antifungal sesquiterpenoid quinones with an amino acid residue from an Okinawan marine sponge . Tetrahed; settings: read-out: GI50 leukaemia L-1210; cited from earlier work
epidermoid KB cell line = test system: epidermoid KB cell line; set-up: method as in ref 22 = [22]; 22 Shigemori H , Madono T , Sasaki T , Mikami Y , Kobayashi JI 1994 Nakijiquinones A and B, new antifungal sesquiterpenoid quinones with an amino acid residue from an Okinawan marine sponge . Tetrahed; settings: cited from earlier work
NCI-H929 myeloma = test system: NCI-H929 myeloma; set-up: method as in ref 23 = [23]; 23 Jiao W-H , Xu T-T , Yu H-B , Mu F-R , Li J , Li Y-S , Yang F , Han B-N , Lin H-W 2014 Dysidaminones A-M, cytotoxic and NF-B inhibitory sesquiterpene aminoquinones from the South China Sea sponge, D; settings: cited from earlier work
[1] = test system: HepG2 hepatoma cancer cell line; set-up: method as in ref 23 = [23]; 23 Jiao W-H , Xu T-T , Yu H-B , Mu F-R , Li J , Li Y-S , Yang F , Han B-N , Lin H-W 2014 Dysidaminones A-M, cytotoxic and NF-B inhibitory sesquiterpene aminoquinones from the South China Sea sponge, D; settings: cited from earlier work
melanoma B16/F10 = test system: melanoma B16/F10; set-up: method as in ref 21 = [21]; 21 Rodríguez J , Quiñoá E , Riguera R , Peters BM , Abrell LM , Crews P 1992 The structures and stereochemistry of cytotoxic sesquiterpene quinones from Dactylospongia elegans . Tetrahedron 48 , 6667; settings: cited from earlier work
HT-29 colorectal = test system: HT-29 colorectal; set-up: method as in ref 21 = [21]; 21 Rodríguez J , Quiñoá E , Riguera R , Peters BM , Abrell LM , Crews P 1992 The structures and stereochemistry of cytotoxic sesquiterpene quinones from Dactylospongia elegans . Tetrahedron 48 , 6667; settings: cited from earlier work
P-388 leukaemia cells = test system: P-388 leukaemia cells; set-up: method as in ref 21 = [21]; 21 Rodríguez J , Quiñoá E , Riguera R , Peters BM , Abrell LM , Crews P 1992 The structures and stereochemistry of cytotoxic sesquiterpene quinones from Dactylospongia elegans . Tetrahedron 48 , 6667; settings: cited from earlier work
A-549 lung = test system: A-549 lung; set-up: method as in ref 21 = [21]; 21 Rodríguez J , Quiñoá E , Riguera R , Peters BM , Abrell LM , Crews P 1992 The structures and stereochemistry of cytotoxic sesquiterpene quinones from Dactylospongia elegans . Tetrahedron 48 , 6667; settings: cited from earlier work

In the case of CC1=CCC[C@H]2[C@](C)(CC3=C(O)C(=O)C=C(NCC(=O)O)C3=O)[C@@H](C)CC[C@]12C [compound 5, nakijiquinone A], the GI50 (leukaemia L-1210) is listed as 9.46 µM and the “GI50 epidermoid KB” value (epidermoid KB cell line) is listed as 18.92 µM.
In the case of CC1=CCC[C@H]2[C@](C)(CC3=CC(=O)C=C(NCCc4ccccc4)C3=O)[C@@H](C)CC[C@]12C [compound 7, 18-phenethylaminoavarone], the GI50 (NCI-H929 myeloma) is given as 1.76 µM.
For CC1=CCC[C@H]2[C@](C)(CC3=CC(=O)C=C(NCC(C)C)C3=O)[C@@H](C)CC[C@]12C [compound 6, dysidaminone E-5], the GI50 [1] is given as 0.94 µM.
For C=C1CCC[C@H]2[C@](C)(CC3=C(O)C(=O)C=C(OC)C3=O)[C@@H](C)CC[C@]12C [compound 4, epi-ilimaquinone], the GI50 (melanoma B16/F10) is given as 3.1 µM, the GI50 (HT-29 colorectal) is given as 9.48 µM and the GI50 (P-388 leukaemia cells) is given as 6.14 µM. For the same compound, the GI50 (A-549 lung) was 2.51 µM.
